Patent publication EP1691802B1, “METHODS FOR THE AMELIORATION OF ENVIRONMENTAL OXIDANT STRESS AND THE REGULATION OF BENEFICIAL GENES” (The Ester C Company, priority 2003, dated 2005)

Tested on: white blood cells
Design: species or system human
Details: in vivo, po
Procedure: Three vitamin C preparations and a placebo were tested to determine white blood cell bioavailability and pharmacokinetics in a double-blind, randomized, crossover study in human subjects. The three vitamin C and placebo compositions were • "Test A": ascorbic acid USP • "Test B": a mineral ascorbate (calcium ascorbate) + vitamin C metabolites (principally calcium threonate), in which the metabolites are produced in situ by a process such as disclosed in US Patent 4,822,816 • "Test C": a mineral ascorbate (calcium ascorbate) + vitamin C metabolites (calcium threonate), manufactured by adding calcium threonate to calcium ascorbate. • "Test D": placebo All three vitamin C compositions were standardized to 1000mg vitamin C equivalent per dose tablets.
A total of 15 subjects (all male between the ages of 21 and 50) were divided into three groups of five and were entered into a four-way crossover design study to minimize inter-subject variability, i.e., in which the subjects act as their own controls. […]
Vitamin C levels of the urine, plasma and white blood cells were determined by HPLC. The areas under the curve (AUC) for the ascorbic acid levels detected in white cells, plasma and urine was determined for each group using the trapezoidal rule (Selby, 1979). The data and the standard deviation was analyzed using repeated-measures analysis of variance ([…]). […]

- levels of white cell vitamin C in smokers: lowest levels
SMILES: O=C1O[C@H]([C@@H](O)CO)C(O)=C1O [Test A, ascorbic acid]
